“Also recorded” adds a separate entry of the source.
Experiments:
genital mucosal tissue = assay: Entry of CFSE-labeled splenocytes into genital mucosal tissue; format: in vivo; settings: CFSE-labeled splenocytes ivag, 12 hours; vs estrus-stage mice
Procedure: Estrus-stage or DMPA-treated mice were administered CFSE-labeled splenocytes intravaginally and euthanized 12 hours later. Relative leukocyte infiltration of vaginal mucosal tissue in estrus-stage vs. DMPA-treated mice was evaluated by confocal microscopy.
These findings established progestin mediated increases in mucosal permeability promote both passive entry of low molecular weight molecules and incursion of larger-sized cells that are more reliant on energy-dependent processes.

DSG1 = DSG1 gene expression in ectocervical biopsies from women; format: in vivo; settings: 1 month after initiating DMPA vs no hormonal contraceptive
Description: FIG. 3 is a graph showing the effect of DMPA on ectocervical DSG1 gene expression in women. Ectocervical biopsy tissue collected from the same women; before they started (No HC) and 1 month after they initiated DMPA.
(§1) To confirm the relevance of the mouse model findings, DMPA-mediated changes in mucosal permeability was explored with ectocervical biopsies from women using no hormonal contraceptive and again 1 month after they initiated DMPA.
(§2) Human ectocervical and murine vaginal tissues were immediately immersed in 1 mL of RNAlater® (Qiagen), stored for 24 h at 4° C., and stored long-term at −80° C. RNA isolated using the RNeasy Lipid Tissue Kit (Qiagen) using manufacturer's instructions was re-suspended in nuclease-free water and quantified using a NanoDrop spectrophotometer (Thermo Scientific). The following mouse primers were utilized: desmocollin 1 (Mm00496525_ml), desmoglein-1α (Mm00809994_s1), ephrinA3 (Mm01212723_g1) and pyruvate carboxylase (Mm00500992_ml) as housekeeping reference gene (all from Thermo Scientific). […] To define relative gene expression, 100 ng of RNA was mixed with TaqMan® RNA-to-Ct™ 1-Step Kit and adequate primer (final volume of 10 μL/well) using manufacturer's instructions (Life Technologies). qRT-PCR was performed using a Quantstudio3 Thermal Cycler, and data analyzed via Quanstudio Software (Applied Biosystems).

[1] = tested on: genital mucosal permeability; assay: Human tissue permeability assay on biopsy specimens; set-up: species or system women
Procedure: as §1
Endocervical biopsy specimens obtained from women were placed in transport media, transferred into sterile 96-well plates, and incubated 45 minutes in a 20 μL solution of PBS containing LY and DR (at the same concentrations used in mouse studies). Tissue was likewise fixed and embedded as detailed for mice. Stratified squamous epithelium, lamina propria, and connective tissue were identified using light microscopy (at 100× magnification), while images obtained at 400× magnification were used to quantify penetration of LY into ectocervical tissue.

EphrinA3 (EFNA3) = assay: EphrinA3 gene and protein expression in vaginal tissue (RT-PCR, immunohistochemistry); format: in vivo; settings: DMPA-treated vs estrus-stage mice
Description: Vaginal tissue was harvested from mice in estrus, DMPA-treated mice, and mice treated with DMPA and Premarin vaginal cream were placed in RNAlater® for RNA isolation or embedded in formaldehyde for histology analysis. FIG. 5A is a bar graph showing gene expression for Ephrin A3 (Efna3) relative to pyruvate carboxylase, a housekeeping gene.
To corroborate microarray results, EphrinA3 gene and protein expression were compared in estrus-stage and DMPA-treated mice. To also evaluate effects of exogenous estrogen, other DMPA-treated mice were treated intravaginally with the estrogen cream Premarin. […] The vaginal tissue was assessed for DSG1 protein levels using immunofluorescent staining and confocal microscopy.
as §2, with “Scientific).” for “Scientific). The following mouse primers were utilized: desmocollin 1 (Mm00496525_ml), desmoglein-1α (Mm00809994_s1), ephrinA3 (Mm01212723_g1) and pyruvate carboxylase (Mm00500992_ml) as housekeeping reference gene (all from Thermo Scientific).”, “Biosystems). […]” for “Biosystems).”

HSV-1 = assay: Genital HSV-1 GFP infection, virus replication in vaginal epithelium; format: in vivo, mice; settings: 1.5 ug/30 uL ivag 24 h prior to 3×10^3 PFU HSV-1 GFP; tissue 24 h after infection
Procedure: Estrus-stage or DMPA-treated mice were intravaginally administered vehicle or recombinant mouse Fc-EFNA3 at 1.5 ug/30 uL 24 h prior to genital infection with 3×10^3 PFU HSV-1q GFP (fluorescent virus). Vaginal tissue was recovered 24 h after infection and evaluated for HSV-1 replication in the vaginal epithelium using confocal microscopy. […] To evaluate if treatment with rm-EphrinA3 protects mice from lethal HSV-2 infection, DMPA-treated mice were intravaginally administered Fc- or His-tagged versions of the rm-protein prior to infection. […] Because the microarray data indicated EphrinA1, EphrinA2, EphrinA3, EphrinA4, and EphrinA5 were upstream regulators of Dsg1 and Dsc1 expression in the mouse vagina, we hypothesized that capacity of EphrinA3 to increase cell-cell adhesion molecule expression may be shared by other members of the EphrinA family.

markers of inflammation = assay: Expression of markers of inflammation in ectocervical biopsies from women; format: in vivo; settings: 1 month after initiating DMPA vs no hormonal contraceptive

In the case of `CC(=O)O[C@]1(C(C)=O)CC[C@H]2[C@@H]3C[C@H](C)C4=CC(=O)CC[C@]4(C)[C@H]3CC[C@@]21C` [DMPA], the “leukocyte entry into genital tissue” value (genital mucosal tissue) is reported as “facilitates entry of leukocytes into genital mucosal tissue; also recorded: promoted leukocyte entry into genital tissue”, the “DSG1 expression in ectocervical tissue” value (DSG1) is reported as “significantly lower” and the mucosal permeability ([1]; specimens collected after initiating hormonal contraceptive) is reported as “increased mucosal permeability”. The “correlation between serum DMPA levels and genital mucosal permeability” value ([1]; women) was “strong positive correlation”, the “expression of EphrinA3 in vaginal mucosal tissue” value (EphrinA3 (EFNA3)) was “dramatically impair expression; also recorded: reduces EFNA3 expression” and the “Foci of virus replication observed in vaginal epithelium” value (HSV-1) was “observed”. The “expression of markers of inflammation in ectocervical tissue” value (markers of inflammation) was “significantly higher”.

Source: patent US20220362330A1, “Compositions and Methods for Increasing Epithelial Barrier Function” (The Board of Trustees of the Leland Stanford Junior …, priority 2019, published 2022)
